Measured values taken from patent publication US20110166123A1, “NOVEL COMPOSITIONS AND METHODS OF USE” (priority 2008, published 2011).

System: human immunodeficiency virus type 1 (HIV-1)
Test: microbe, parasite or virus in culture
Type: cell-based
Settings: Human immunodeficiency virus 1, HeLa, 48 h, HIV-1 luciferase reporter, HeLa cells, 48 hours after infection

Row | SMILES | EC50
1 | COc1nc2c(cc1Cc1ccc(F)c(F)c1)c(=O)c(C(=O)O)cn2[C@H](CO)C(C)C [Example 1B] | > 100 nM
2 | COc1nc2c(cc1Cc1cccc(Cl)c1F)c(=O)c(C(=O)O)cn2[C@@H](CO)C(C)C [Example 1C] | 10 to 100 nM
3 | COc1nc2c(cc1Cc1c(F)cc(F)cc1F)c(=O)c(C(=O)O)cn2[C@H](CO)C(C)C [Example 1D] | > 100 nM
4 | COc1nc2c(cc1Cc1ccc(F)cc1F)c(=O)c(C(=O)O)cn2[C@H](CO)C(C)C [Example 1E] | 10 to 100 nM
5 | COc1nc2c(cc1Cc1cccc(Cl)c1F)c(=O)c(C(=O)O)cn2[C@@H](C)CO [Example 1F] | > 100 nM
6 | CCC(C)[C@@H](CO)n1cc(C(=O)O)c(=O)c2cc(Cc3cccc(Cl)c3F)c(OC)nc21 (stereo partly drawn) [Example 1G] | < 10 nM
7 | COc1nc2c(cc1Cc1cccc(Cl)c1F)c(=O)c(C(=O)O)cn2[C@H](CO)C(C)(C)C [Example 1H] | < 10 nM
8 | CC[C@@H](CO)n1cc(C(=O)O)c(=O)c2cc(Cc3cccc(Cl)c3F)c(OC)nc21 [Example 1I] | 10 to 100 nM
9 | CCCC(CO)n1cc(C(=O)O)c(=O)c2cc(Cc3cccc(Cl)c3F)c(OC)nc21 (stereo not drawn) [Example 1J] | 10 to 100 nM
10 | COc1nc2c(cc1Cc1cccc(Cl)c1F)c(=O)c(C(=O)O)cn2[C@H](CO)CC(C)C [Example 1K] | < 10 nM
11 | COc1nc2c(cc1Cc1cccc(Cl)c1F)c(=O)c(C(=O)O)cn2C(CO)CO [Example 1M] | > 100 nM
12 | COc1nc2c(cc1Cc1cccc(Cl)c1F)c(=O)c(C(=O)O)cn2C1CCOCC1 [Example 1N] | > 100 nM
13 | COc1nc2c(cc1Cc1cccc(Cl)c1F)c(=O)c(C(=O)O)cn2[C@H](CO)C1CCCCC1 [Example 1O] | < 10 nM
14 | COc1nc2c(cc1Cc1cccc(Cl)c1F)c(=O)c(C(=O)O)cn2[C@H]1CCCC[C@@H]1O [Example 1P] | > 100 nM
15 | COc1nc2c(cc1Cc1cccc(Cl)c1F)c(=O)c(C(=O)O)cn2C[C@H](O)c1ccccc1 [Example 1Q] | > 100 nM
16 | COc1nc2c(cc1Cc1cccc(Cl)c1F)c(=O)c(C(=O)O)cn2C[C@@H](O)c1ccccc1 [Example 1R] | > 100 nM
17 | CC(C)(C)[C@@H](CO)n1cc(C(=O)O)c(=O)c2cc(Cc3cccc(Cl)c3F)c(N3CCOCC3)nc21 [Example 2A, (S)-6-(3-chloro-2-fluorobenzyl)-7-morpholin-1-(1-hydroxy-3,3-dimethylbutan-2-yl)-4-oxo-1,4-dihydro-1,8-naphthyridine-3-carboxylic acid] | < 10 nM
18 | COCCN1CCN(c2nc3c(cc2Cc2cccc(Cl)c2F)c(=O)c(C(=O)O)cn3[C@H](CO)C(C)(C)C)CC1 [Example 2AA] | 10 to 100 nM
19 | CC(C)(C)[C@@H](CO)n1cc(C(=O)O)c(=O)c2cc(Cc3cccc(Cl)c3F)c(O)nc21 [Example 2B, (S)-6-(3-chloro-2-fluorobenzyl)-7-hydroxy-1-(1-hydroxy-3,3-dimethylbutan-2-yl)-4-oxo-1,4-dihydro-1,8-naphthyridine-3-carboxylic acid] | 10 to 100 nM
20 | CC(C)(C)[C@@H](CO)n1cc(C(=O)O)c(=O)c2cc(Cc3cccc(Cl)c3F)c(NCCN3CCOCC3)nc21 [Example 2CC] | < 10 nM

Row | SMILES | EC50
21 | CCOc1nc2c(cc1Cc1cccc(Cl)c1F)c(=O)c(C(=O)O)cn2[C@H](CO)C(C)(C)C [Example 2C] | < 10 nM
22 | CC(C)(C)[C@@H](CO)n1cc(C(=O)O)c(=O)c2cc(Cc3cccc(Cl)c3F)c(NCCCN3CCOCC3)nc21 [Example 2DD] | < 10 nM
23 | CC(C)Oc1nc2c(cc1Cc1cccc(Cl)c1F)c(=O)c(C(=O)O)cn2[C@H](CO)C(C)(C)C [Example 2D] | 10 to 100 nM
24 | CC(C)(C)[C@@H](CO)n1cc(C(=O)O)c(=O)c2cc(Cc3cccc(Cl)c3F)c(NCCCN3CCCC3=O)nc21 [Example 2EE] | < 10 nM
25 | CC(C)(C)[C@@H](CO)n1cc(C(=O)O)c(=O)c2cc(Cc3cccc(Cl)c3F)c(OCCO)nc21 [Example 2E] | < 10 nM
26 | CC(C)(C)[C@@H](CO)n1cc(C(=O)O)c(=O)c2cc(Cc3cccc(Cl)c3F)c(NCc3ccccn3)nc21 [Example 2FF] | < 10 nM
27 | CC(C)(C)[C@@H](CO)n1cc(C(=O)O)c(=O)c2cc(Cc3cccc(Cl)c3F)c(OCCCO)nc21 [Example 2F] | < 10 nM
28 | CC(C)(C)[C@@H](CO)n1cc(C(=O)O)c(=O)c2cc(Cc3cccc(Cl)c3F)c(NCCCn3ccnc3)nc21 [Example 2GG] | 10 to 100 nM
29 | CC(C)(C)[C@@H](CO)n1cc(C(=O)O)c(=O)c2cc(Cc3cccc(Cl)c3F)c(OCCCCO)nc21 [Example 2G] | 10 to 100 nM
30 | CC(C)(C)[C@@H](CO)n1cc(C(=O)NCCCn2ccnc2)c(=O)c2cc(Cc3cccc(Cl)c3F)c(NCCCn3ccnc3)nc21 [Example 2HH] | > 100 nM
31 | COCCOc1nc2c(cc1Cc1cccc(Cl)c1F)c(=O)c(C(=O)O)cn2[C@H](CO)C(C)(C)C [Example 2H] | < 10 nM
32 | COc1nc2c(cc1Cc1cccc(Cl)c1F)c(=O)c(C(=O)NCCO)cn2[C@H](CO)C(C)C [Example 2II] | > 100 nM
33 | COCCCOc1nc2c(cc1Cc1cccc(Cl)c1F)c(=O)c(C(=O)O)cn2[C@H](CO)C(C)(C)C [Example 2I] | 10 to 100 nM
34 | CC(C)(C)[C@@H](CO)n1cc(C(=O)O)c(=O)c2cc(Cc3cccc(Cl)c3F)c(F)nc21 [Example 2JJ] | 10 to 100 nM
35 | COCCCCOc1nc2c(cc1Cc1cccc(Cl)c1F)c(=O)c(C(=O)O)cn2[C@H](CO)C(C)(C)C [Example 2J] | 10 to 100 nM
36 | CC(C)[C@@H](CO)n1cc(C(=O)O)c(=O)c2cc(Cc3cccc(Cl)c3F)c(F)nc21 [Example 2KK] | 10 to 100 nM
37 | CN(C)CCOc1nc2c(cc1Cc1cccc(Cl)c1F)c(=O)c(C(=O)O)cn2[C@H](CO)C(C)(C)C [Example 2K] | 10 to 100 nM
38 | CN(C)CCCOc1nc2c(cc1Cc1cccc(Cl)c1F)c(=O)c(C(=O)O)cn2[C@H](CO)C(C)(C)C [Example 2L] | 10 to 100 nM
39 | CC(C)(C)[C@@H](CO)n1cc(C(=O)O)c(=O)c2cc(Cc3cccc(Cl)c3F)c(OCCN3CCOCC3)nc21 [Example 2M] | 10 to 100 nM
40 | CC(C)(C)[C@@H](CO)n1cc(C(=O)O)c(=O)c2cc(Cc3cccc(Cl)c3F)c(OCc3cccnc3)nc21 [Example 2N] | < 10 nM

Row | SMILES | EC50
41 | CC(C)(C)[C@@H](CO)n1cc(C(=O)O)c(=O)c2cc(Cc3cccc(Cl)c3F)c(OCCN3CCCC3)nc21 [Example 2O] | 10 to 100 nM
42 | CN(C)c1nc2c(cc1Cc1cccc(Cl)c1F)c(=O)c(C(=O)O)cn2[C@H](CO)C(C)(C)C [Example 2P] | 10 to 100 nM
43 | CC(C)(C)[C@@H](CO)n1cc(C(=O)O)c(=O)c2cc(Cc3cccc(Cl)c3F)c(NCCO)nc21 [Example 2R] | < 10 nM
44 | CC(C)(C)[C@@H](CO)n1cc(C(=O)O)c(=O)c2cc(Cc3cccc(Cl)c3F)c(NCCCO)nc21 [Example 2S] | 10 to 100 nM
45 | COCCNc1nc2c(cc1Cc1cccc(Cl)c1F)c(=O)c(C(=O)O)cn2[C@H](CO)C(C)(C)C [Example 2T] | < 10 nM
46 | COCCCNc1nc2c(cc1Cc1cccc(Cl)c1F)c(=O)c(C(=O)O)cn2[C@H](CO)C(C)(C)C [Example 2U] | < 10 nM
47 | CC(C)(C)[C@@H](CO)n1cc(C(=O)O)c(=O)c2cc(Cc3cccc(Cl)c3F)c(N3CC[C@@H](O)C3)nc21 [Example 2W] | 10 to 100 nM
48 | CC(C)(C)[C@@H](CO)n1cc(C(=O)O)c(=O)c2cc(Cc3cccc(Cl)c3F)c(N3CCC(O)CC3)nc21 [Example 2X] | 10 to 100 nM
49 | CC(C)(C)[C@@H](CO)n1cc(C(=O)O)c(=O)c2cc(Cc3cccc(Cl)c3F)c(N3CCC(CO)CC3)nc21 [Example 2Y] | 10 to 100 nM
50 | CC(C)(C)[C@@H](CO)n1cc(C(=O)O)c(=O)c2cc(Cc3cccc(Cl)c3F)c(N3CCN(CCO)CC3)nc21 [Example 2Z] | 10 to 100 nM
51 | CC(C)(C)[C@@H](CO)n1cc(C(=O)O)c(=O)c2cc(Cc3cccc(Cl)c3F)c(N)nc21 [Example 3A, (S)-7-Amino-6-(3-chloro-2-fluorobenzyl)-1-(1-hydroxy-3,3-dimethylbutan-2-yl)-4-oxo-1,4-dihydro-1,8-naphthyridine-3-carboxylic acid] | < 10 nM
52 | Cc1nc2c(cc1Cc1cccc(Cl)c1F)c(=O)c(C(=O)O)cn2[C@H](CO)C(C)(C)C [Example 3B, 6-(3-Chloro-2-fluorobenzyl)-1-((S)-1-hydroxymethyl-2,2-dimethyl-propyl)-7-methyl-4-oxo-1,4-dihydro-1,8-naphthyridine-3-carboxylic acid] | 10 to 100 nM
53 | CC(C)(C)[C@@H](CO)n1cc(C(=O)O)c(=O)c2cc(Cc3cccc(Cl)c3F)c(CCCO)nc21 [Example 3C, 6-(3-Chloro-2-fluoro-benzyl)-1-((S)-1-hydroxymethyl-2,2-dimethyl-propyl)-7-(3-hydroxy-propyl)-4-oxo-1,4-dihydro-1,8-naphthyridine-3-carboxylic acid] | < 10 nM
54 | CC(C)[C@@H](CO)n1cc(C(=O)O)c(=O)c2cc(Cc3cccc(Cl)c3F)cnc21 [Example 4A, (S)-6-(3-chloro-2-fluorobenzyl)-1-(1-hydroxy-3-methylbutan-2-yl)-4-oxo-1,4-dihydro-1,8-naphthyridine-3-carboxylic acid] | 10 to 100 nM
55 | CC(C)[C@@H](CO)n1cc(C(=O)O)c(=O)c2cc(Cc3ccccc3F)cnc21 [Example 4B] | > 100 nM
56 | CC(C)[C@@H](CO)n1cc(C(=O)O)c(=O)c2cc(Cc3ccccc3)cnc21 [Example 4C] | > 100 nM
57 | O=C(O)c1cn(CCO)c2ncc(Cc3cccc(Cl)c3F)cc2c1=O [Example 4D] | > 100 nM
58 | O=C(O)c1cn(CCO)c2ncc(Cc3cccc(Cl)c3Cl)cc2c1=O [Example 4E] | > 100 nM
59 | CC(C)[C@@H](CO)n1cc(C(=O)O)c(=O)c2cc(Cc3cccc(Cl)c3F)ncc21 [Example 5A, 6-(3-Chloro-2-fluoro-benzyl)-1-((S)-1-hydroxymethyl-2-methyl-propyl)-4-oxo-1,4-dihydro-[1,7]naphthyridine-3-carboxylic acid] | 10 to 100 nM
60 | CC(C)[C@@H](CO)n1cc(C(=O)O)c(=O)c2cc(Cc3ccc(F)c(F)c3)ncc21 [Example 5B, 6-(3,4-Difluoro-benzyl)-1-((S)-1-hydroxymethyl-2-methyl-propyl)-4-oxo-1,4-dihydro-[1,7]naphthyridine-3-carboxylic acid] | > 100 nM
